Laboratory results as given in patent US20230405136A1, “New Combinations of Boron Compounds and Adjuvants for the Treatment of Pathophysiological Conditions and Cancer and for Muscle Regeneration” (Consorcio Centro De Investigacion Biomedica En Red, M.P., priority 2020, published 2023).

What was measured:
Type in all cases: cell-based
[1] = tested on: human WT, DMD and DM1 cells; experiment: Myotube formation, across WT, DMD and DM1 cells
Description: (§1) Briefly, the aforementioned cells (DMD, DM1 and WT) were cultured and maintained in 75 cm 2 flasks with skeletal growth medium (Promocell skeletal muscle cell basal medium supplemented with growth factors, calf serum and P/S 1%) at 37° C. in a humidified atmosphere of 5% CO2, until 80% confluence. Glass cover slip substrates (12 mm diameter) were sterilised with UV light for 30 min and then coated with 3.6 μg of fibronectin (FN). After incubation with the FN coating for 1 h at RT, cells were then seeded at 40.000 cells/well (p-24 plate) in skeletal muscle cell basal medium.
(§2) For the examples where a boron compound was added, after the previous step, different amounts of the boron compound were added in the culture medium, Promocell skeletal muscle cell basal medium).
(§3) After 24 h of culture growth medium was changed by myoblast differentiation medium (DMEM high glucose/P/S 1%, insulin 10 μg/mL) and for the examples where the boron compound was added, then different amounts of boron compound were added. Differentiation medium was changed every 2 days and if necessary, the same amount of the boron compound, as previously incorporated was also added in every change. Myotube formation was evaluated after 8 days.
Cells were fixed with formalin 4% at the end of the culture for 30 minutes at 4° C. After fixing, cells were washed and conserved at 4° C. in DPBS. Starting with the fixed cells preserved at 4° C. in DPBS, samples were then rinsed with DPBS and permeabilised with DPBS/0.5% Triton X-100 at room temperature for 5 min. Samples were then incubated with sarcomeric α-actinin primary antibody (abcam, 1:200), muscle marker for immunofluorescence detection, in blocking buffer DPBS/2% BSA at 37° C. for 1 h or overnight at 4° C. […]
Cells were cultured and maintained in 75 cm^2 flasks with skeletal growth medium (Promocell skeletal muscle cell basal medium supplemented with growth factors, calf serum and P/S 1%) at 37° C. in a humidified atmosphere of 5% CO2, until 80% confluence. […] Myotube formation was evaluated after 8 days. […]

human DMD cells [2] = experiment: Myotube formation (sarcomeric α-actinin immunofluorescence) in DMD muscle cells; details: 8 days
Description: as §1, with “Glass cover slip substrates (12 mm diameter) were sterilised with UV light for 30 min and then coated with 3.6 μg of fibronectin (FN).” left out
as §2, §3
(§4) Cells were fixed with formalin 4% at the end of the culture for 30 minutes at 4° C. After fixing, cells were washed and conserved at 4° C. in DPBS. Starting with the fixed cells preserved at 4° C. in DPBS, samples were then rinsed with DPBS and permeabilised with DPBS/0.5% Triton X-100 at room temperature for 5 min. Samples were then incubated with sarcomeric α-actinin primary antibody (abcam, 1:200), muscle marker for immunofluorescence detection, in blocking buffer DPBS/2% BSA at 37° C. for 1 h or overnight at 4° C. The samples were then rinsed twice in DPBS/0.1% Triton X-100 and incubated with the secondary antibody anti mouse Cy3 (Invitrogen, 1:200) in blocking buffer at room temperature for 1 h. Finally, samples were washed twice in DPBS/0.1% Triton X-100 before mounting with Vectashield containing DAPI (Vector Laboratories) and observed under an epifluorescence microscope (Nikon Eclipse 80i).
(§5) Cells were cultured and maintained in 75 cm^2 flasks with skeletal growth medium (Promocell skeletal muscle cell basal medium supplemented with growth factors, calf serum and P/S 1%) at 37° C. in a humidified atmosphere of 5% CO2, until 80% confluence. […] After incubation with the FN coating for 1 h at RT, cells were then seeded at 40,000 cells/well (p-24 plate) in Promocell skeletal muscle cell basal medium. After 24 h of culture, growth medium was changed by myoblast differentiation medium (DMEM high glucose/P/S 1%, insulin 10 μg/mL) and different amounts of bortezomib 5.4 10^−6 μg (0.0000054 μg) Ex 1.1, 2.7 10^−5 μg (0.000027 μg) Ex 1.2, 5.4 10^−5 μg (0.000054 μg) Ex 1.3, and 1.1 10^−4 μg (0.00011 μg) Ex 1.4 (all non-cytotoxic concentrations) were added to each sample in the culture medium. Differentiation medium was changed every 2 days and the different amounts of bortezomib 5.4 10^−6 μg, 2.7 10^−5 μg, 5.4 10^−5 μg and 1.1 10^−4 μg, were added to each sample in every change. Myotube formation was evaluated after 8 days. Cells were fixed as described in the control samples. Afterwards, the samples were also rinsed and washed as described in the control samples. […]

human DM1 cells = experiment: Myotube formation (sarcomeric α-actinin immunofluorescence) in DM1 muscle cells; details: 8 days
Description: as §1, with “Glass cover slip substrates (12 mm diameter) were sterilised with UV light for 30 min and then coated with 3.6 μg of fibronectin (FN).” left out
as §2, §3, §4, §5

[3] = tested on: human wild type (WT) cells; experiment: Myotube formation (sarcomeric α-actinin immunofluorescence) in wild type muscle cells; details: 8 days
Description: as §1, with “Glass cover slip substrates (12 mm diameter) were sterilised with UV light for 30 min and then coated with 3.6 μg of fibronectin (FN).” left out
as §2, §3, §4, §5

human DMD cells [4] = experiment: Myotube formation (sarcomeric α-actinin immunofluorescence) in DMD muscle cells; details: 8 days; remark: listed apart in the source
[5] = bortezomib added in the culture medium, 8 days
[6] = DMD, without fibronectin, bortezomib 2.7 10^−5 μg
[7] = DMD-FN, with fibronectin (3.6 μg coating), bortezomib 1.1 10^−4 μg
[8] = DMD-FN, with fibronectin (3.6 μg coating), bortezomib 2.7 10^−5 μg
[9] = DMD-FN, with fibronectin (3.6 μg coating), bortezomib 5.4 10^−5 μg
[10] = DMD-FN, with fibronectin (3.6 μg coating), bortezomib 5.4 10^−6 μg
[11] = DM1, without fibronectin, bortezomib 1.1 10^−4 μg
[12] = DM1, without fibronectin, bortezomib 2.7 10^−5 μg
[13] = DM1, without fibronectin, bortezomib 5.4 10^−5 μg
[14] = DM1, without fibronectin, bortezomib 5.4 10^−6 μg
[15] = DM1-FN, with fibronectin (3.6 μg coating), bortezomib 1.1 10^−4 μg
[16] = DM1-FN, with fibronectin (3.6 μg coating), bortezomib 2.7 10^−5 μg
[17] = DM1-FN, with fibronectin (3.6 μg coating), bortezomib 5.4 10^−5 μg
[18] = DM1-FN, with fibronectin (3.6 μg coating), bortezomib 5.4 10^−6 μg
[19] = WT, without fibronectin, bortezomib 1.1 10^−4 μg
[20] = WT, without fibronectin, bortezomib 2.7 10^−5 μg
[21] = WT, without fibronectin, bortezomib 5.4 10^−5 μg
[22] = WT, without fibronectin, bortezomib 5.4 10^−6 μg
[23] = WT-FN, with fibronectin (3.6 μg coating), bortezomib 1.1 10^−4 μg
[24] = WT-FN, with fibronectin (3.6 μg coating), bortezomib 2.7 10^−5 μg
[25] = WT-FN, with fibronectin (3.6 μg coating), bortezomib 5.4 10^−5 μg
[26] = WT-FN, with fibronectin (3.6 μg coating), bortezomib 5.4 10^−6 μg
[27] = DMD, without fibronectin, bortezomib 1.1 10^−4 μg
[28] = DMD, without fibronectin, bortezomib 5.4 10^−5 μg
[29] = DMD, without fibronectin, bortezomib 5.4 10^−6 μg

## CC(C)C[C@H](NC(=O)[C@H](Cc1ccccc1)NC(=O)c1cnccn1)B(O)O [bortezomib, ((R)-3-Methyl-1-((S)-3-phenyl-2-(pyrazine-2-carboxamido)propanamido)butyl)boronic acid]
[1]; [5]
  myotube diameter: importantly increased myotube diameter
  myotube differentiation: enhanced myotube differentiation
[1]; dystrophic cells, bortezomib together with FN
  myotube formation and diameter: restored myotube formation (fusion capability) and improved myotube diameter
Human DMD cells [2]; [6]
  % of cell differentiation: 31%
Human DMD cells [2]; [7]
  % of cell differentiation: 17%
  myotube diameter: 17 μm
Human DMD cells [2]; [8]
  myotube diameter: 72 μm
Human DMD cells [2]; [9]
  % of cell differentiation: 61%
Human DMD cells [2]; [10]
  % of cell differentiation: 47%
  myotube diameter: 45 μm
Human DM1 cells; [11]
  % of cell differentiation: 1%
  myotube diameter: 4 μm
Human DM1 cells; [12]
  % of cell differentiation: 13%
  myotube diameter: 11 μm
Human DM1 cells; [13]
  % of cell differentiation: 0.5%
  myotube diameter: 4 μm
Human DM1 cells; [14]
  % of cell differentiation: 14%
  myotube diameter: 11 μm
Human DM1 cells; [15]
  % of cell differentiation: 1%
  myotube diameter: 23 μm
Human DM1 cells; [16]
  % of cell differentiation: 55%
  myotube diameter: 79 μm
Human DM1 cells; [17]
  % of cell differentiation: 54%
  myotube diameter: 130 μm
Human DM1 cells; [18]
  % of cell differentiation: 37%
  myotube diameter: 44 μm
[3]; [19]
  % of cell differentiation: 0%
  myotube diameter: 0 μm
[3]; [20]
  % of cell differentiation: 55%
  myotube diameter: 60 μm
[3]; [21]
  % of cell differentiation: 45%
  myotube diameter: 48 μm
[3]; [22]
  % of cell differentiation: 47%
  myotube diameter: 32 μm
[3]; [23]
  % of cell differentiation: 39%
  myotube diameter: 63 μm
[3]; [24]
  % of cell differentiation: 79%
  myotube diameter: 319 μm
[3]; [25]
  % of cell differentiation: 72%
  myotube diameter: 270 μm
[3]; [26]
  % of cell differentiation: 70%
  myotube diameter: 122 μm
Human DMD cells [4]; [27]
  % of cell differentiation: 1%
  myotube diameter: 2 μm
Human DMD cells [4]; [6]
  myotube diameter: 27 μm
Human DMD cells [4]; [28]
  % of cell differentiation: 5%
  myotube diameter: 5 μm
Human DMD cells [4]; [29]
  % of cell differentiation: 9%
  myotube diameter: 15 μm
Human DMD cells [4]; [8]
  % of cell differentiation: 80%
Human DMD cells [4]; [9]
  myotube diameter: 46 μm
